From patent US9302999B2, “Substituted triazoles as herbicides” (E. I. DU PONT DE NEMOURS AND COMPANY, priority 2012, dated 2016)

How the values were obtained:
Type in all cases: in vivo
[1] = test system: barnyardgrass (Echinochloa crus-galli); experiment: Test A pre-/postemergence: barnyardgrass; conditions: for Barnyardgrass plant response rating: Postemergence; for Plant response rating, Barnyardgrass: Preemergence
Method in brief: (§1)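 Pre: directed soil spray after planting in loam + sand. Post: same formulation (non-phytotoxic solvent + surfactant) on 1–2-leaf plants, 2–10 cm. Greenhouse ~10 d; visual injury 0–100 vs untreated.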

[2] = test system: rice (Oryza sativa); experiment: Test C flooded paddy test: rice; conditions: scale 0 to 100 (0 no effect, 100 complete control)
Method in brief: (§2)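 Plants were grown to the 2-leaf stage, pots flooded to 3 cm above soil, and test compounds applied directly to the paddy water, with that depth held throughout. After 13 to 15 days in a greenhouse, injury was visually rated against controls on a 0 (no effect) to 100 (complete control) scale.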

[3] = test system: pigweed (Amaranthus retroflexus); experiment: Test A pre-/postemergence: pigweed; conditions: for Pigweed plant response rating: Postemergence; for Plant response rating, Pigweed: Preemergence
Method in brief: as §1

[4] = test system: morningglory (Ipomoea spp.); experiment: Test A pre-/postemergence: morningglory; conditions: for Morningglory plant response rating: Postemergence; for Plant response rating, Morningglory: Preemergence
Method in brief: as §1

[5] = test system: wheat (Triticum aestivum); experiment: Test A pre-/postemergence: wheat; conditions: for Wheat plant response rating: Postemergence; for Plant response rating, Wheat: Preemergence
Method in brief: as §1

[6] = test system: ducksalad (Heteranthera limosa); experiment: Test C flooded paddy test: ducksalad; conditions: scale 0 to 100 (0 no effect, 100 complete control)
Method in brief: as §2

[7] = test system: velvetleaf (Abutilon theophrasti); experiment: Test A pre-/postemergence: velvetleaf; conditions: for Velvetleaf plant response rating: Postemergence; for Plant response rating, Velvetleaf: Preemergence
Method in brief: as §1

[8] = test system: barnyardgrass (Echinochloa crus-galli); experiment: Test C flooded paddy test: barnyardgrass; conditions: scale 0 to 100 (0 no effect, 100 complete control)
Method in brief: as §2

[9] = test system: crabgrass, large (large crabgrass, Digitaria sanguinalis); experiment: Test A pre-/postemergence: crabgrass, large; conditions: for Crabgrass, Large plant response rating: Postemergence; for Plant response rating, Crabgrass, Large: Preemergence
Method in brief: as §1

[10] = test system: sedge, umbrella (small-flower umbrella sedge, Cyperus difformis); experiment: Test C flooded paddy test: sedge, umbrella; conditions: scale 0 to 100 (0 no effect, 100 complete control)
Method in brief: as §2

[11] = test system: corn (Zea mays); experiment: Test A pre-/postemergence: corn; conditions: for Corn plant response rating: Postemergence; for Plant response rating, Corn: Preemergence
Method in brief: as §1

[12] = test system: foxtail, giant (giant foxtail, Setaria faberii); experiment: Test A pre-/postemergence: foxtail, giant; conditions: for Foxtail, Giant plant response rating: Postemergence; for Plant response rating, Foxtail, Giant: Preemergence
Method in brief: as §1

[13] = 125 g ai/ha, 0 to 100 scale, 0 is no effect, 100 is complete control
[14] = 500 g ai/ha, visual rating on 0 to 100 scale (0 no effect, 100 complete control), approximately ten days
[15] = 125 g ai/ha, 0 to 100 scale (0 no effect, 100 complete control)
[16] = 500 g ai/ha, 0 to 100 scale, 0 is no effect, 100 is complete control
[17] = Flood (flooded paddy test), 62 g ai/ha, visual rating after 13 to 15 days
[18] = Flood (flooded paddy test), 125 g ai/ha, visual rating after 13 to 15 days
[19] = Flood (flooded paddy test), 250 g ai/ha, visual rating after 13 to 15 days

Compound: Cc1nn(-c2ccncc2)nc1C(=O)c1cccc(C(F)(F)F)c1 [Compound 22]
- Barnyardgrass plant response rating [1, 13]: 10
- Barnyardgrass plant response rating [1, 14]: 20
- Plant response rating, Barnyardgrass [1, 15]: 0
- Plant response rating, Barnyardgrass [1, 16]: 10
- Plant response rating, Rice [2, 17]: 0
- Plant response rating, Rice [2, 18]: 0
- Plant response rating, Rice [2, 19]: 0
- Plant response rating, Rice ([2]; Flood, 31 g ai/ha): 0
- Pigweed plant response rating [3, 13]: 50
- Pigweed plant response rating [3, 14]: 80
- Plant response rating, Pigweed [3, 15]: 10
- Plant response rating, Pigweed [3, 16]: 10
- Morningglory plant response rating [4, 13]: 10
- Morningglory plant response rating [4, 14]: 20
- Plant response rating, Morningglory [4, 15]: 0
- Plant response rating, Morningglory [4, 16]: 0
- Wheat plant response rating [5, 13]: 10
- Plant response rating, Wheat [5, 15]: 0
- Plant response rating, Wheat [5, 16]: 0
- Plant response rating, Ducksalad [6, 17]: 0
- Plant response rating, Ducksalad [6, 18]: 0
- Plant response rating, Ducksalad [6, 19]: 0
- Plant response rating, Ducksalad ([6]; Flood, 31 g ai/ha): 0
- Velvetleaf plant response rating [7, 13]: 10
- Velvetleaf plant response rating [7, 14]: 30
- Plant response rating, Velvetleaf [7, 15]: 0
- Plant response rating, Velvetleaf [7, 16]: 0
- Plant response rating, Barnyardgrass [8, 17]: 0
- Plant response rating, Barnyardgrass [8, 18]: 0
- Plant response rating, Barnyardgrass [8, 19]: 0
- Plant response rating, Barnyardgrass ([8]; Flood, 31 g ai/ha): 0
- Crabgrass, Large plant response rating [9, 13]: 40
- Crabgrass, Large plant response rating [9, 14]: 60
- Plant response rating, Crabgrass, Large [9, 15]: 10
- Plant response rating, Crabgrass, Large [9, 16]: 40
- Plant response rating, Sedge, Umbrella [10, 17]: 0
- Plant response rating, Sedge, Umbrella [10, 18]: 0
- Plant response rating, Sedge, Umbrella [10, 19]: 0
- Plant response rating, Sedge, Umbrella ([10]; Flood, 31 g ai/ha): 0
- Corn plant response rating [11, 13]: 10
- Corn plant response rating [11, 14]: 20
- Plant response rating, Corn [11, 15]: 0
- Plant response rating, Corn [11, 16]: 0
- Foxtail, Giant plant response rating [12, 13]: 20
- Foxtail, Giant plant response rating [12, 14]: 50
- Plant response rating, Foxtail, Giant [12, 15]: 20
- Plant response rating, Foxtail, Giant [12, 16]: 80

Compound: Cc1nn(-c2ccc(C(F)(F)F)cn2)nc1Cn1ccc(C(F)(F)F)n1 [Compound 7]
- Barnyardgrass plant response rating [1, 13]: 30
- Barnyardgrass plant response rating [1, 14]: 90
- Plant response rating, Barnyardgrass [1, 15]: 40
- Plant response rating, Barnyardgrass [1, 16]: 100
- Plant response rating, Rice [2, 17]: 0
- Plant response rating, Rice [2, 18]: 0
- Plant response rating, Rice [2, 19]: 15
- Plant response rating, Rice ([2]; Flood, 31 g ai/ha): 0
- Pigweed plant response rating [3, 13]: 100
- Pigweed plant response rating [3, 14]: 100
- Plant response rating, Pigweed [3, 15]: 100
- Plant response rating, Pigweed [3, 16]: 100
- Morningglory plant response rating [4, 13]: 90
- Morningglory plant response rating [4, 14]: 90
- Plant response rating, Morningglory [4, 15]: 30
- Plant response rating, Morningglory [4, 16]: 80
- Wheat plant response rating [5, 13]: 0
- Wheat plant response rating [5, 14]: 20
- Plant response rating, Wheat [5, 15]: 0
- Plant response rating, Wheat [5, 16]: 0
- Plant response rating, Ducksalad [6, 17]: 0
- Plant response rating, Ducksalad [6, 18]: 30
- Plant response rating, Ducksalad [6, 19]: 70
- Plant response rating, Ducksalad ([6]; Flood, 31 g ai/ha): 0
- Velvetleaf plant response rating [7, 13]: 30
- Velvetleaf plant response rating [7, 14]: 70
- Plant response rating, Velvetleaf [7, 15]: 30
- Plant response rating, Velvetleaf [7, 16]: 60
- Plant response rating, Barnyardgrass [8, 17]: 0
- Plant response rating, Barnyardgrass [8, 18]: 0
- Plant response rating, Barnyardgrass [8, 19]: 20
- Plant response rating, Barnyardgrass ([8]; Flood, 31 g ai/ha): 0
- Crabgrass, Large plant response rating [9, 13]: 70
- Crabgrass, Large plant response rating [9, 14]: 90
- Plant response rating, Crabgrass, Large [9, 15]: 100
- Plant response rating, Crabgrass, Large [9, 16]: 100
- Plant response rating, Sedge, Umbrella [10, 17]: 40
- Plant response rating, Sedge, Umbrella [10, 18]: 50
- Plant response rating, Sedge, Umbrella [10, 19]: 85
- Plant response rating, Sedge, Umbrella ([10]; Flood, 31 g ai/ha): 30
- Corn plant response rating [11, 13]: 10
- Corn plant response rating [11, 14]: 50
- Plant response rating, Corn [11, 15]: 0
- Plant response rating, Corn [11, 16]: 30
- Foxtail, Giant plant response rating [12, 13]: 50
- Foxtail, Giant plant response rating [12, 14]: 90
- Plant response rating, Foxtail, Giant [12, 15]: 90
- Plant response rating, Foxtail, Giant [12, 16]: 100

Compound: Cc1nn(-c2ccc(C(F)(F)F)cn2)nc1Cn1nc(C(F)(F)F)cc1C [Compound 21]
- Barnyardgrass plant response rating [1, 13]: 0
- Barnyardgrass plant response rating [1, 14]: 10
- Plant response rating, Barnyardgrass [1, 15]: 0
- Plant response rating, Barnyardgrass [1, 16]: 10
- Plant response rating, Rice [2, 17]: 0
- Plant response rating, Rice [2, 18]: 0
- Plant response rating, Rice [2, 19]: 0
- Plant response rating, Rice ([2]; Flood, 31 g ai/ha): 0
- Pigweed plant response rating [3, 13]: 60
- Pigweed plant response rating [3, 14]: 80
- Plant response rating, Pigweed [3, 15]: 0
- Plant response rating, Pigweed [3, 16]: 50
- Morningglory plant response rating [4, 13]: 20
- Morningglory plant response rating [4, 14]: 40
- Plant response rating, Morningglory [4, 15]: 0
- Plant response rating, Morningglory [4, 16]: 0
- Wheat plant response rating [5, 13]: 0
- Wheat plant response rating [5, 14]: 0
- Plant response rating, Wheat [5, 15]: 0
- Plant response rating, Wheat [5, 16]: 0
- Plant response rating, Ducksalad [6, 17]: 0
- Plant response rating, Ducksalad [6, 18]: 0
- Plant response rating, Ducksalad [6, 19]: 0
- Plant response rating, Ducksalad ([6]; Flood, 31 g ai/ha): 0
- Velvetleaf plant response rating [7, 13]: 10
- Velvetleaf plant response rating [7, 14]: 20
- Plant response rating, Velvetleaf [7, 15]: 0
- Plant response rating, Velvetleaf [7, 16]: 0
- Plant response rating, Barnyardgrass [8, 17]: 0
- Plant response rating, Barnyardgrass [8, 18]: 0
- Plant response rating, Barnyardgrass [8, 19]: 0
- Plant response rating, Barnyardgrass ([8]; Flood, 31 g ai/ha): 0
- Crabgrass, Large plant response rating [9, 13]: 20
- Crabgrass, Large plant response rating [9, 14]: 40
- Plant response rating, Crabgrass, Large [9, 15]: 0
- Plant response rating, Crabgrass, Large [9, 16]: 60
- Plant response rating, Sedge, Umbrella [10, 17]: 0
- Plant response rating, Sedge, Umbrella [10, 18]: 0
- Plant response rating, Sedge, Umbrella [10, 19]: 0
- Plant response rating, Sedge, Umbrella ([10]; Flood, 31 g ai/ha): 0
- Corn plant response rating [11, 13]: 0
- Corn plant response rating [11, 14]: 10
- Plant response rating, Corn [11, 15]: 0
- Plant response rating, Corn [11, 16]: 0
- Foxtail, Giant plant response rating [12, 13]: 0
- Foxtail, Giant plant response rating [12, 14]: 10
- Plant response rating, Foxtail, Giant [12, 15]: 0
- Plant response rating, Foxtail, Giant [12, 16]: 30

Compound: Cc1nn(-c2cccc(Cl)c2)nc1C(=O)c1cccc(C(F)(F)F)c1 [Compound 76]
- Barnyardgrass plant response rating [1, 13]: 0
- Barnyardgrass plant response rating [1, 14]: 20
- Plant response rating, Barnyardgrass [1, 15]: 0
- Plant response rating, Barnyardgrass [1, 16]: 0
- Plant response rating, Rice [2, 17]: 0
- Plant response rating, Rice [2, 18]: 0
- Plant response rating, Rice [2, 19]: 0
- Plant response rating, Rice ([2]; Flood, 31 g ai/ha): 0
- Pigweed plant response rating [3, 13]: 50
- Pigweed plant response rating [3, 14]: 60
- Plant response rating, Pigweed [3, 15]: 0
- Plant response rating, Pigweed [3, 16]: 20
- Morningglory plant response rating [4, 13]: 10
- Morningglory plant response rating [4, 14]: 20
- Plant response rating, Morningglory [4, 15]: 0
- Plant response rating, Morningglory [4, 16]: 0
- Wheat plant response rating [5, 13]: 0
- Wheat plant response rating [5, 14]: 20
- Plant response rating, Wheat [5, 15]: 0
- Plant response rating, Wheat [5, 16]: 0
- Plant response rating, Ducksalad [6, 17]: 0
- Plant response rating, Ducksalad [6, 18]: 0
- Plant response rating, Ducksalad [6, 19]: 0
- Plant response rating, Ducksalad ([6]; Flood, 31 g ai/ha): 0
- Velvetleaf plant response rating [7, 13]: 0
- Velvetleaf plant response rating [7, 14]: 10
- Plant response rating, Velvetleaf [7, 15]: 0
- Plant response rating, Velvetleaf [7, 16]: 0
- Plant response rating, Barnyardgrass [8, 17]: 0
- Plant response rating, Barnyardgrass [8, 18]: 0
- Plant response rating, Barnyardgrass [8, 19]: 0
- Plant response rating, Barnyardgrass ([8]; Flood, 31 g ai/ha): 0
- Crabgrass, Large plant response rating [9, 13]: 10
- Crabgrass, Large plant response rating [9, 14]: 30
- Plant response rating, Crabgrass, Large [9, 15]: 10
- Plant response rating, Crabgrass, Large [9, 16]: 40
- Plant response rating, Sedge, Umbrella [10, 17]: 0
- Plant response rating, Sedge, Umbrella [10, 18]: 0
- Plant response rating, Sedge, Umbrella [10, 19]: 0
- Plant response rating, Sedge, Umbrella ([10]; Flood, 31 g ai/ha): 0
- Corn plant response rating [11, 13]: 10
- Corn plant response rating [11, 14]: 20
- Plant response rating, Corn [11, 15]: 0
- Plant response rating, Corn [11, 16]: 0
- Foxtail, Giant plant response rating [12, 13]: 10
- Foxtail, Giant plant response rating [12, 14]: 20
- Plant response rating, Foxtail, Giant [12, 15]: 10
- Plant response rating, Foxtail, Giant [12, 16]: 80
